How the values were obtained:
[1] = Stability and size of micro-dispersions in distilled water; format: physicochemical; conditions: dispersed in water without γ-PGA
Experimental: The particle size of the redispersed solutions of γ-PGA/Ptx and γ-PGA/Imq was measured using Electrophoretic Light Scattering-ELS Z (Otsuka Electronics, Osaka, Japan). The stability of the dispersion was assessed by observing the samples for aggregation and phase separation after storing the sample at 4° C. for 1 week after dispersion in distilled water. The morphology of theses micro-dispersions were observed through FE-SEM (JSM-7000F, JEOL Ltd. Japan) and FE-TEM (JEM-2100F HR, JEOL Ltd. Japan). For the SEM sample preparation, the lyophilized and redispersed suspension was deposited on a silicon wafer plate and vacuum-dried to remove water, followed by platinum coating using a Technics Hummer II sputter coater at 30 mA for 90 s. For TEM sample preparation, a drop (2 μL) of redispersed suspension was placed onto a formvar/carbon coated copper grid, followed by vacuum-drying to evaporate water.
Distinct monodisperse peaks for γ-PGA/Imq and γ-PGA/Ptx/Imq were observed, indicating uniform size distribution (FIG. 3). In case of γ-PGA/Ptx, two peaks were observed, which might be due to a high aspect ratio of the paclitaxel crystal.

[2] = In-vitro viability assay (MTS); format: cell-based; conditions: mouse, bone marrow derived dendritic cells (BMDCs), after 48 h, normalized to untreated cells, read-out: cell viability / proliferation of BMDCs
Experimental: BMDCs were isolated from mouse bone marrow as reported previously. MTS assay for analysis of mitochondrial activity was used as a measure of cell viability. 1×10^4 cells in 100 μL media were seeded per well in a 96 well plate (Corning Costar, Cambridge, Mass., USA). 100 μl of sample dispersion was added to cell culture media and incubated for 24 h and 48 h at 37° C. and 5% CO2. After the incubation, 20 μL of MTS solution-Cell Titer 96 Aqueous One Solution kit (Promega, Madison, Wis., USA) was added to each well and incubated for 2 h. The absorbance of the samples was measured at 490 nm (VersaMax, Molecular Devices, Sunnyvale, Calif., USA) and normalized with respect to absorbance of untreated cells.

| dispersion state in water without γ-PGA [1] | SMILES | viability at 48 h [2] [%] |
| --- | --- | --- |
| aggregation and precipitation | CC(C)Cn1cnc2c(N)nc3ccccc3c21 [imiquimod] | 250 |
| aggregation and precipitation | CC(=O)O[C@H]1C(=O)[C@@]2(C)[C@H]([C@H](OC(=O)c3ccccc3)[C@]3(O)C[C@H](OC(=O)[C@H](O)[C@@H](NC(=O)c4ccccc4)c4ccccc4)C(C)=C1C3(C)C)[C@]1(OC(C)=O)CO[C@@H]1C[C@@H]2O [paclitaxel] |  |
